Like-named read-outs stand apart in the source and are kept apart here.
How the values were obtained:
[1] = system: rats with chronic kainate degeneration of the brain (AMPA/kainate receptors); assay: Chronic kainate degeneration in rats (kainic acid 12 mg/kg I.M.), treatment I.M.; format: in vivo, rat; conditions: for Chronic Kainate lethality in rats (%) / Rats with heavy neurologic disturbances (%) / Rats with large weight loss (%): I.M.; for Chronic Kainate lethality in rats (%): 2 weeks after kainate; for Rats with heavy neurologic disturbances (%): score 3 to 5 points; for Dose with significant neuroprotective effect: text summary of Table 3 (NMDA lethality and kainate degeneration)
Method: Table 3 summarizes the neuroprotective effect of such treatments.
Rats were treated as in Example 3. Table 4 summarizes the neuroprotective effect of such treatments.

[2] = system: rats with hemic hypoxia (sodium nitrite); assay: Hemic hypoxia in rats (sodium nitrite 80 mg/kg I.M.), treatment I.M.; format: in vivo, rat; conditions: for ED50: Rattus norvegicus, im; for ED50 / Dose with significant anti-hypoxic effect: combination: memantine dose; for Dose with significant anti-hypoxic effect: text summary of Table 1 (hemic and asphyctic hypoxia)
Method: (§1) Rats were intra-muscularly (I.M.) administered with 80 mg/kg sodium nitrite to achieve hemic hypoxia (Serdiuk et al., Eksp. Klin. Farmakol., 2000, Vol. 63(6), pages 3-8). Mice were caged in a 100 cm^3 sealed glass chamber to achieve asphyctic hypoxia, which simulates cerebral ischemia (Serdiuk et al., Eksp. Klin. Farmakol., 2000, Vol. 63(6), pages 3-8; Khalili et al., Eur. Rev. Med. Pharmacol. Sci., 2015, Vol. 19(17), pages 3282-3285).
(§2) Rats and mice were treated as in Example 1.

[3] = system: mice, toxic stimulation of NMDA receptors of brain
Method: Mice were I.P. administered with 250 mg/kg N-Methyl-D-aspartic acid (NMDA), a neurotoxin causing clonic-tonic seizure and death in 100% of animals by toxic stimulating of NMDA receptors of brain (Leander et al., Brain Res., 1988, Vol. 448 (1), pages 115-120). Rats were I.M. administered with 12 mg/kg Kainic acid to achieve chronic kainate degeneration of the brain by stimulation of AMPA/kainate receptors (Serdyuk et al., Bull. Exp. Biol. Med., 2014, Vol. 157(1), pages 15-17). Chronic kainate degeneration leads to chronic kainate lethality, neurologic disturbances and large weight loss (Serdyuk et al., Bull. Exp. Biol. Med., 2014, Vol. 157(1), pages 15-17).
Animals were then treated with deionized water (control), memantine, epinephrine or combinations of memantine and epinephrine, which were I.P. or I.M administered, as indicated.
Rats were treated as in Example 3.

[4] = system: mice with asphyctic hypoxia; assay: Asphyctic hypoxia in mice (sealed 100 cm^3 glass chamber), treatment I.P.; format: in vivo; conditions: for ED50: Mus musculus, ip, Dose increasing the life of mice by 50%, combination: memantine dose, read-out: Asphyctic hypoxia (ED50), mg/kg, I.P. admin.
Method: as §1, §2

[5] = system: rats with focal cerebral ischemia; conditions: cited from earlier work
[6] = system: rats with hemic hypoxia (sodium nitrite); assay: Hemic hypoxia in rats (sodium nitrite 80 mg/kg), oral treatment; format: in vivo, rat; conditions: 40 minutes before sodium nitrite
Method: Table 5 summarizes the anti-hypoxic and neuroprotective effects of such treatments.
Rats were treated as in Example 5. Table 6 summarizes the neuroprotective effect of such treatments.

[7] = cited from earlier work
[8] = system: rats with chronic kainate degeneration of the brain (AMPA/kainate receptors); assay: Chronic kainate degeneration in rats (kainic acid 12 mg/kg), oral treatment; format: in vivo, rat; conditions: for Chronic kainate lethality in rats, % per group: 2 weeks after kainate; for Rats with heavy neurological diseases (%): score 3 to 5 points; for ED50: Rattus norvegicus
Method: Rats were either orally administered with 80 mg/kg sodium nitrite to achieve hemic hypoxia, as explained In Example 1, or with 12 mg/kg Kainic acid to achieve chronic kainate degeneration of the brain by stimulation of AMPA/kainate receptors.

[9] = intravenous injection during the first 12 hours after stroke, cited from earlier work
[10] = Dose increasing the life of rats by 50%, read-out: Hemic hypoxia (ED50), mg/kg, I.M. admin.
[11] = text summary of Table 2, span over hemic and asphyctic hypoxia, read-out: ED50, anti-hypoxic effect
[12] = Dose 5 mg/kg (combination: memantine dose)
[13] = Dose 10 mg/kg (combination: memantine dose)

SMILES: CNC[C@H](O)c1ccc(O)c(O)c1 [Epinephrine, epinephrine]
- Chronic Kainate lethality in rats (%) ([1]; Dose 0.01 mg/kg): 90%
- Rats with heavy neurologic disturbances (%) ([1]; Dose 0.01 mg/kg, 7-14 days after kainate): 100 ^ %
- Rats with large weight loss (%) ([1]; Dose 0.01 mg/kg, underweight more than 30%, 7-14 days after kainate): 100 ^ %
- Chronic Kainate lethality in rats (%) ([1]; Dose 0.02 mg/kg): 80%
- Rats with heavy neurologic disturbances (%) ([1]; Dose 0.02 mg/kg, 7-14 days after kainate): 90 ^ %
- Rats with large weight loss (%) ([1]; Dose 0.02 mg/kg, underweight more than 30%, 7-14 days after kainate): 80 ^ %
- Chronic Kainate lethality in rats (%) ([1]; Dose 0.1 mg/kg): 20 ^1%
- Rats with heavy neurologic disturbances (%) ([1]; Dose 0.1 mg/kg, 7-14 days after kainate): 30 ^1%
- Rats with large weight loss (%) ([1]; Dose 0.1 mg/kg, underweight more than 30%, 7-14 days after kainate): 20 ^2%
- Chronic Kainate lethality in rats (%) ([1]; Dose 0.2 mg/kg): 0 ^2%
- Rats with heavy neurologic disturbances (%) ([1]; Dose 0.2 mg/kg, 7-14 days after kainate): 10 ^2%
- Rats with large weight loss (%) ([1]; Dose 0.2 mg/kg, underweight more than 30%, 7-14 days after kainate): 0 ^2%
- Dose with significant neuroprotective effect ([1]; combination: memantine dose): ≥ 0.1 mg/kg
- Hemic hypoxia, rat life duration (min), I.M. admin. ([2]; Dose 0.01 mg/kg): 63 ± 7 ^ min
- Hemic hypoxia, rat life duration (min), I.M. admin. ([2]; Dose 0.02 mg/kg): 69 ± 8 ^ min
- Hemic hypoxia, rat life duration (min), I.M. admin. ([2]; Dose 0.1 mg/kg): 113 ± 16 ^2 min
- Hemic hypoxia, rat life duration (min), I.M. admin. ([2]; Dose 0.2 mg/kg): 122 ± 19 ^2 min
- ED50 [2, 10]: 0.06 ± 0.01 mg/kg
- ED50 [2, 11]: 0.06 to 0.12 mg/kg
- Dose with significant anti-hypoxic effect [2]: ≥ 0.1 mg/kg
- Acute NMDA lethality in mice (%), I.P. admin. ([3]; Dose 0.01 mg/kg): 100 ^ %
- Acute NMDA lethality in mice (%), I.P. admin. ([3]; Dose 0.02 mg/kg): 100 ^ %
- Acute NMDA lethality in mice (%), I.P. admin. ([3]; Dose 0.1 mg/kg): 30 ^1%
- Acute NMDA lethality in mice (%), I.P. admin. ([3]; Dose 0.2 mg/kg): 10 ^2%
- Asphyctic hypoxia, mice life duration (sec), I.P. admin. ([4]; Dose 0.01 mg/kg): 711 ± 79 s
- Asphyctic hypoxia, mice life duration (sec), I.P. admin. ([4]; Dose 0.02 mg/kg): 750 ± 90 s
- Asphyctic hypoxia, mice life duration (sec), I.P. admin. ([4]; Dose 0.1 mg/kg): 990 ± 123 s
- Asphyctic hypoxia, mice life duration (sec), I.P. admin. ([4]; Dose 0.2 mg/kg): 1250 ± 155 ^1 sec
- ED50 [4]: 0.12 ± 0.02 mg/kg

SMILES: CC12CC3CC(C)(C1)CC(N)(C3)C2 [Memantine, memantine]
- Chronic Kainate lethality in rats (%) [1, 12]: 90%
- Rats with heavy neurologic disturbances (%) ([1]; Dose 5 mg/kg (combination: memantine dose), 7-14 days after kainate): 90 ^ %
- Rats with large weight loss (%) ([1]; Dose 5 mg/kg (combination: memantine dose), underweight more than 30%, 7-14 days after kainate): 90 ^ %
- Chronic Kainate lethality in rats (%) [1, 13]: 70%
- Rats with heavy neurologic disturbances (%) ([1]; Dose 10 mg/kg (combination: memantine dose), 7-14 days after kainate): 80 ^ %
- Rats with large weight loss (%) ([1]; Dose 10 mg/kg (combination: memantine dose), underweight more than 30%, 7-14 days after kainate): 70 ^ %
- Chronic Kainate lethality in rats (%) ([1]; Dose 20 mg/kg): 40 ^1%
- Rats with heavy neurologic disturbances (%) ([1]; Dose 20 mg/kg, 7-14 days after kainate): 50 ^1%
- Rats with large weight loss (%) ([1]; Dose 20 mg/kg, underweight more than 30%, 7-14 days after kainate): 40 ^1%
- ED50 ([1]; Rattus norvegicus, im, read-out: Dose reducing the number of rats with a large deficit of weight by 50% (ED50), mg/kg, I.M. admin., underweight more than 30%, 7-14 days after kainate, combination: memantine dose): 17.6 ± 2.4 mg/kg
- Dose with significant neuroprotective effect ([1]; combination: memantine dose): 20 mg/kg
- Hemic hypoxia, rat life duration (min), I.M. admin. [2, 12]: 63 ± 5 ^ min
- Hemic hypoxia, rat life duration (min), I.M. admin. [2, 13]: 77 ± 8 ^ min
- Hemic hypoxia, rat life duration (min), I.M. admin. ([2]; Dose 20 mg/kg): 86 ± 9 ^1 min
- ED50 [2, 10]: 18.2 ± 2.3 mg/kg
- ED50 [2, 11]: 18 to 20 mg/kg
- Dose with significant anti-hypoxic effect [2]: 20 mg/kg
- Effect on brain injury and neurological disorders ([5]; prophylactic administration, 20 mg/kg): prevented injury of the brain and reduced neurological disorders
- Hemic hypoxia, life of rats (min), Oral admin. [6, 12]: 62 ± 7 min
- Hemic hypoxia, life of rats (min), Oral admin. [6, 13]: 65 ± 9 min
- Hemic hypoxia, life of rats (min), Oral admin. ([6]; Dose 20 mg/kg): 73 ± 11 min
- Acute NMDA lethality in mice (%), I.P. admin. [3, 12]: 100 ^ %
- Acute NMDA lethality in mice (%), I.P. admin. [3, 13]: 60 ^ %
- Acute NMDA lethality in mice (%), I.P. admin. ([3]; Dose 20 mg/kg): 16 ^1%
- Neurological and cognitive function of stroke patients ([7]; 20 mg for 6 months, subacute and recovery phase of stroke): significantly improved neurological and cognitive function
- Side effects of prolonged use at a high dose ([7]; prolonged use, high dose): development of agitation, insomnia, irritability, and psychosis
- Asphyctic hypoxia, mice life duration (sec), I.P. admin. [4, 12]: 850 ± 80 s
- Asphyctic hypoxia, mice life duration (sec), I.P. admin. [4, 13]: 936 ± 93 s
- Asphyctic hypoxia, mice life duration (sec), I.P. admin. ([4]; Dose 20 mg/kg): 1070 ± 114 ^1 sec
- ED50 [4]: 19.9 ± 2.8 mg/kg
- Chronic kainate lethality in rats, % per group ([8]; Dose 5 mg/kg (combination: memantine dose), oral): 90%
- Rats with heavy neurological diseases (%) ([8]; Dose 5 mg/kg (combination: memantine dose), oral, 7-14 days after kainate): 90%
- Rats with large weight loss (%) ([8]; Dose 5 mg/kg (combination: memantine dose), oral, underweight more than 30%, 7-14 days after kainate): 90%
- Chronic kainate lethality in rats, % per group ([8]; Dose 10 mg/kg (combination: memantine dose), oral): 80%
- Rats with heavy neurological diseases (%) ([8]; Dose 10 mg/kg (combination: memantine dose), oral, 7-14 days after kainate): 80%
- Rats with large weight loss (%) ([8]; Dose 10 mg/kg (combination: memantine dose), oral, underweight more than 30%, 7-14 days after kainate): 70%
- Chronic kainate lethality in rats, % per group ([8]; Dose 20 mg/kg, oral): 60% ^3
- Rats with heavy neurological diseases (%) ([8]; Dose 20 mg/kg, oral, 7-14 days after kainate): 70%
- Rats with large weight loss (%) ([8]; Dose 20 mg/kg, oral, underweight more than 30%, 7-14 days after kainate): 60% ^3
- ED50 ([8]; read-out: Dose decreasing the number of rats with large weight loss by 50% (ED50), mg/kg, Oral admin., underweight more than 30%, 7-14 days after kainate, combination: memantine dose): 18.8 ± 2.4 mg/kg
- ED50 ([8]; text summary of Table 6, span over hemic hypoxia and kainate endpoints, oral, combination: memantine dose, read-out: ED50, anti-hypoxic and neuroprotective effects): 18 to 20 mg/kg
- Dose with significant neuroprotective effects ([8]; text summary of Table 5, oral, combination: memantine dose): 20 mg/kg

SMILES: CNC[C@H](O)c1cccc(O)c1 [Phenylephrine, phenylephrine]
- Cerebral blood flow [9]: significant improvement in cerebral blood flow
- Blood pressure after induced hypertension ([9]; from 100-110 mm): 160-170 mm
- Effect on infarction and neurological damage ([5]; intravenous administration before ligation of the middle cerebral artery): prevented infarction development and reduced neurological damage
- Hemic hypoxia, life of rats (min), Oral admin. ([6]; Dose 0.02 mg/kg): 60 ± 7 min
- Hemic hypoxia, life of rats (min), Oral admin. ([6]; Dose 0.05 mg/kg): 62 ± 9 min
- Hemic hypoxia, life of rats (min), Oral admin. ([6]; Dose 0.1 mg/kg): 67 ± 10 min
- Hemic hypoxia, life of rats (min), Oral admin. ([6]; Dose 0.5 mg/kg): 77 ± 12 min
- Hemic hypoxia, life of rats (min), Oral admin. ([6]; Dose 1.0 mg/kg (combination: memantine dose)): 88 ± 14 ^1 min

— patent publication US20190343780A1, “LOW DOSE DRUG COMBINATIONS FOR USE IN PREVENTING AND TREATING NEURONAL DAMAGE” (priority 2016, published 2019)
